What was measured:
[1] = target: human Bisphosphoglycerate mutase (hBPGM) (Homo sapiens (Human), UniProt P07738); test: BPGM Phosphatase Assay; assay type: biochemical; settings: Table 6 additional results; read-out: huBPGM: phosphatase Enzyme EC50
Protocol: Solutions of the test compounds were then added to the plate and the DMSO content was normalized across the plate. The plate was incubated at RT for 15 min. Next, the substrate 2,3-BPG (5 μL) was added to all the wells, and the plate was sealed and incubated for 24 hr at RT. After incubation, BIOMOL green dye (40 μL) was added to all the wells, the plate was shaken to mix, and the plate was incubated at RT for 20-30 min.

hBPGM = hBPGM (Homo sapiens (Human), UniProt P07738); test: BPGM Synthase Assay; assay type: biochemical; settings: Table 6 additional results; read-out: huBPGM: synthase Enzyme IC50
Procedure, shortened: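 BPGM (5 nM) with GAPDH (0.4 U/mL) was incubated with compound for 30 min at RT in pH 7.4 Tris buffer with 3.23 mM KH2PO4 and 1 mM DTT. Reaction ran 60 min with NAD, 3PG and GAP (substrate solution 2 mM, 20 μM and 800 μM). After koningic acid stop, NADH fluorescence was read, then resorufin from diaphorase/resazurin coupling.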

Chain of human Bisphosphoglycerate mutase (hBPGM) (P07738 whole entry): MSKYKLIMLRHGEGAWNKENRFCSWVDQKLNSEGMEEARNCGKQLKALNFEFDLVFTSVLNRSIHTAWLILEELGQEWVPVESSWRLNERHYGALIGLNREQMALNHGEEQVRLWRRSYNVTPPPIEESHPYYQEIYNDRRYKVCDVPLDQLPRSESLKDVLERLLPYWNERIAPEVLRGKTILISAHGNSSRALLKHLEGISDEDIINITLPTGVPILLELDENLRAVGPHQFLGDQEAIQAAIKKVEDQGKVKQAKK
Chain of hBPGM (P07738 whole entry, looked up): as the sequence (P07738 whole entry) above

| SMILES | EC50 [1] | IC50 (hBPGM) |
| --- | --- | --- |
| Cc1nc(CNC(=O)c2cccc(C#N)n2)sc1-c1csc(-c2cc(O)c(C(=O)O)cc2F)n1 [Example 180] | 20 nM | 28 nM |
| Cc1nc(COc2ncccn2)sc1-c1cccc(-c2ccc(C(=O)O)cc2)n1 [Example 95] | 2100 nM | 280 nM |
| COC(=O)NCc1nc(C)c(-c2csc(-c3cc(O)c(C(=O)O)cn3)n2)s1 [Example 207] | 340 nM | 280 nM |
| Cc1nc(CNC(=O)C(C)(C)C)sc1-c1csc(-c2cc(O)c(C(=O)O)cc2F)c1 [Example 139] | 90 nM | 84 nM |
| Cc1nc(COC(N)=O)sc1-c1cccc(-c2ccc(C(=O)O)c(O)c2)c1 [Example 252] | 1000 nM | 1000 nM |
| Cc1nc(Cn2cccn2)sc1-c1csc(-c2cc(O)c(C(=O)O)cc2F)c1 [Example 229] | 30 nM | 190 nM |
| Cc1nc(COc2ncccn2)sc1-c1cccc(-c2c[nH]c(C(=O)O)c2)n1 [Example 76] | > 25000 nM | 3500 nM |
| Cc1nc(CNC(=O)C2CC2)sc1-c1csc(-c2ccc(C(=O)O)c(O)c2)c1 [Example 97] | 160 nM | 100 nM |
| Cc1nc(CNC(=O)C2CC2)sc1-c1csc(-c2ccc(C(=O)O)c(O)c2)n1 [Example 249] | 210 nM | 180 nM |
| Cc1nc(CNC(=O)CCN(C)C)sc1-c1csc(-c2cc(O)c(C(=O)O)cc2F)n1 [Example 115] | 180 nM | 670 nM |
| Cc1nc(Cc2cccnc2)sc1-c1cccc(-c2ccc(C(=O)O)c(O)c2)n1 [Example 237] | 170 nM | 140 nM |
| Cc1nc(CNC(=O)C(C)(C)C)sc1-c1csc(-c2cc(O)c(C(=O)O)cc2F)n1 [Example 124] | 50 nM | 49 nM |
| Cc1nc(CN2CCOC2=O)sc1-c1cccc(-c2ccc(C(=O)O)c(O)c2)c1 [Example 263] | 1400 nM | 1300 nM |
| Cc1nc(COc2ncccn2)sc1-c1cccc(-c2ccc(C(=O)O)cc2F)n1 [Example 83] | 1400 nM | 360 nM |
| COC(=O)NCc1nc(C)c(-c2csc(-c3c(F)cc(C(=O)O)cc3F)n2)s1 [Example 225] | 7300 nM | 830 nM |
| Cc1nc(CNC(=O)C(C)(C)N(C)C)sc1-c1csc(-c2cc(O)c(C(=O)O)cc2F)n1 [Example 123] | 9700 nM | 530 nM |
| Cc1nc(COc2ncccn2)sc1-c1cccc(-c2csc(C(=O)O)c2)n1 [Example 79] | 110 nM | 550 nM |
| COC(=O)NCc1nc(C)c(-c2cccc(-c3ccc(C(=O)O)c(O)c3)c2)s1 [Example 272] | 520 nM | 290 nM |
| Cc1nc(CNC(=O)c2cccnn2)sc1-c1csc(-c2cc(O)c(C(=O)O)cc2F)n1 [Example 197] | 220 nM | 24 nM |
| Cc1nc(Cc2ccncc2)sc1-c1cccc(-c2ccc(C(=O)O)c(O)c2)c1 [Example 281] | 120 nM | 730 nM |
| Cc1nc(COc2ncccn2)sc1-c1cccc(-c2cc(O)c(C(=O)O)cc2F)n1 [Example 129] | 40 nM | 40 nM |
| Cc1ccc(OCc2nc(C)c(-c3cccc(-c4ccc(C(=O)O)c(O)c4)c3)s2)nc1 [Example 82] | 210 nM | 1100 nM |
| Cc1nc(CN)sc1-c1csc(-c2ccc(C(=O)O)c(O)c2)c1 [Example 244] | > 25000 nM | 840 nM |
| Cc1nc(CNS(C)(=O)=O)sc1-c1csc(-c2cc(O)c(C(=O)O)cc2F)n1 [Example 224] | 300 nM | 260 nM |
| Cc1nc(Cn2c(C)cccc2=O)sc1-c1cccc(-c2ccc(C(=O)O)c(O)c2)c1 [Example 267] | 350 nM | 520 nM |
| Cc1nc(COc2ccc(Cl)cn2)sc1-c1cccc(-c2ccc(C(=O)O)c(O)c2)c1 [Example 74] | 1100 nM | 1800 nM |
| Cc1nc(Cn2c(C#N)cccc2=O)sc1-c1cccc(-c2ccc(C(=O)O)c(O)c2)c1 [Example 103] | 130 nM | 950 nM |
